Assay results published in ChEMBL document CHEMBL4665629, “An optimised series of substituted N-phenylpyrrolamides as DNA gyrase B inhibitors” (Eur J Med Chem, 2019).
In brackets after ≈: the same amount, converted by molar mass.

Key:
Escherichia coli [1] = experiment: Antibacterial activity against Escherichia coli MG1655 harboring […]/D87N and ParC S80I/E84G mutants assessed as minimum inhibitory concentration required for >=90% inhibition of bacterial growth in presence of 50 ug/ml phenylalanine-arginine beta-naphthylamide; format: functional
Acinetobacter baumannii [2] = experiment: microbe, parasite or virus in culture; conditions: ATCC 19606 = CIP 70.34 = JCM 6841
Klebsiella pneumoniae [3] = experiment: microbe, parasite or virus in culture; conditions: 700603
Escherichia coli [4] = experiment: Antibacterial activity against Escherichia coli MG1655 harboring […] mutant assessed as minimum inhibitory concentration required for >=90% inhibition of bacterial growth in presence of 50 ug/ml phenylalanine-arginine beta-naphthylamide; format: functional
Escherichia coli [5] = experiment: Antibacterial activity against Escherichia coli MG1655 harboring […]/D87N and ParC S80I mutants assessed as minimum inhibitory concentration required for >=90% inhibition of bacterial growth in presence of 50 ug/ml phenylalanine-arginine beta-naphthylamide; format: functional
Klebsiella aerogenes [6] = experiment: microbe, parasite or virus in culture; conditions: ATCC 13408
Escherichia coli [7] = experiment: Antibacterial activity against Escherichia coli MG1655 harboring GyrB R136C mutant assessed as minimum inhibitory concentration required for >=90% inhibition of bacterial growth in presence of 50 ug/ml phenylalanine-arginine beta-naphthylamide; format: functional
Escherichia coli [8] = experiment: Antibacterial activity against Escherichia coli MG1655 harboring […]/D87N mutant assessed as minimum inhibitory concentration required for >=90% inhibition of bacterial growth in presence of 50 ug/ml phenylalanine-arginine beta-naphthylamide; format: functional
Enterococcus faecalis [9] = experiment: Antibacterial activity against Enterococcus faecalis ATCC 29212 assessed as bacterial growth inhibition by CLSI protocol based broth dilution or agar dilution method; format: functional
[10] = Inhibition of Escherichia coli DNA topoisomerase 4
DNA gyrase [11] = biological target: T1, DNA gyrase (Escherichia coli, UniProt P0AES4+P0AES6); experiment: Inhibition of Escherichia coli DNA gyrase (A2B2 tetramer) incubated for 60 mins in presence of ATP by malachite green reagent based spectrophotometric analysis; format: protein-complex assay
[12] = Inhibition of Escherichia coli DNA GyraseB incubated for 10 mins followed by ATP substrate addition by coupled spectrophotometric analysis
Escherichia coli [13] = experiment: Antibacterial activity against Escherichia coli assessed as bacterial growth inhibition incubated for 18 to 24 hrs by alamar blue assay; format: functional; conditions: time hrs 18-24
Staphylococcus aureus [14] = experiment: Antibacterial activity against Staphylococcus aureus assessed as bacterial growth inhibition incubated for 18 to 24 hrs by alamar blue assay; format: functional; conditions: time hrs 18-24
[15] = Inhibition of Escherichia coli DNA topoisomerase 4 assessed as residual activity at 1 uM using biotinylated oligonucleotide as substrate incubated for 30 mins in presence of ATP by fluorescence-based microplate reader assay relative to control
Enterococcus faecium = experiment: Antibacterial activity against Enterococcus faecium ATCC 35667 assessed as bacterial growth inhibition at 50 uM incubated for 24 hrs by CLSI protocol based broth microdilution assay relative to control; format: functional
Escherichia coli [16] = experiment: Antibacterial activity against efflux pump d effect ive Escherichia coli JW5503 harbouring tolC mutant assessed as bacterial growth inhibition at 50 uM incubated for 24 hrs by CLSI protocol based broth microdilution assay relative to control; format: functional
Enterococcus faecalis [17] = experiment: Antibacterial activity against Enterococcus faecalis ATCC 29212 assessed as minimum inhibitory concentration required for >=90% inhibition of bacterial growth by CLSI protocol based broth microdilution assay; format: functional
Acinetobacter baumannii [18] = experiment: Antibacterial activity against Acinetobacter baumannii ATCC 19606 assessed as bacterial growth inhibition at 50 uM incubated for 24 hrs by CLSI protocol based broth microdilution assay relative to control; format: functional; conditions: ATCC 19606 = CIP 70.34 = JCM 6841
Enterococcus faecalis [19] = experiment: Antibacterial activity against Enterococcus faecalis ATCC 29212 assessed as bacterial growth inhibition at 50 uM incubated for 24 hrs by CLSI protocol based broth microdilution assay relative to control; format: functional
Klebsiella pneumoniae [20] = experiment: Antibacterial activity against Klebsiella pneumoniae ATCC 700603 assessed as bacterial growth inhibition at 50 uM incubated for 24 hrs by CLSI protocol based broth microdilution assay relative to control; format: functional
Klebsiella aerogenes [21] = experiment: Antibacterial activity against Enterobacter aerogenes ATCC 13408 assessed as bacterial growth inhibition at 50 uM incubated for 24 hrs by CLSI protocol based broth microdilution assay relative to control; format: functional
[22] = biological target: DNA gyrase (Staphylococcus aureus) (UniProt P0A0K8+P20831); experiment: Inhibition of Staphylococcus aureus DNA gyrase assessed as residual activity at 1 uM using biotinylated oligonucleotide as substrate incubated for 30 mins in presence of ATP by fluorescence-based microplate reader assay relative to control; format: protein-complex assay
Sequence of DNA gyrase (Staphylococcus aureus) (P0A0K8 2-644 limits assumed): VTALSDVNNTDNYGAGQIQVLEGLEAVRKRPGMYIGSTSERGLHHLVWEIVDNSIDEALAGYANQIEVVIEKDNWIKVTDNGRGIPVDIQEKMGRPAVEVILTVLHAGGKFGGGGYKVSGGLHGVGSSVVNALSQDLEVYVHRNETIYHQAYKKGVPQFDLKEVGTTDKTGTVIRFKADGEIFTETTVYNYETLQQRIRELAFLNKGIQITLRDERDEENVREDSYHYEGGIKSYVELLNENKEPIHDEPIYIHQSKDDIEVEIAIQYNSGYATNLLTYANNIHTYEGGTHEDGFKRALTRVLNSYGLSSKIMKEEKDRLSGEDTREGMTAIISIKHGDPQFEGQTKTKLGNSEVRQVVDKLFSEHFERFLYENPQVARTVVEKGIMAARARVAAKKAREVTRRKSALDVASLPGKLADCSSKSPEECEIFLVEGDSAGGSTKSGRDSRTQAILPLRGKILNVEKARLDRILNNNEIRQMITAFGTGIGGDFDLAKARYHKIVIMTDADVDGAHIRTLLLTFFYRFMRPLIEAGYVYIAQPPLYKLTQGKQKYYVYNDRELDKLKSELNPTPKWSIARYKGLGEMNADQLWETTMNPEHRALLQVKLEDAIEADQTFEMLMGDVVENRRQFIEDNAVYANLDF
Sequence of DNA gyrase (Staphylococcus aureus) (P20831 whole entry partner): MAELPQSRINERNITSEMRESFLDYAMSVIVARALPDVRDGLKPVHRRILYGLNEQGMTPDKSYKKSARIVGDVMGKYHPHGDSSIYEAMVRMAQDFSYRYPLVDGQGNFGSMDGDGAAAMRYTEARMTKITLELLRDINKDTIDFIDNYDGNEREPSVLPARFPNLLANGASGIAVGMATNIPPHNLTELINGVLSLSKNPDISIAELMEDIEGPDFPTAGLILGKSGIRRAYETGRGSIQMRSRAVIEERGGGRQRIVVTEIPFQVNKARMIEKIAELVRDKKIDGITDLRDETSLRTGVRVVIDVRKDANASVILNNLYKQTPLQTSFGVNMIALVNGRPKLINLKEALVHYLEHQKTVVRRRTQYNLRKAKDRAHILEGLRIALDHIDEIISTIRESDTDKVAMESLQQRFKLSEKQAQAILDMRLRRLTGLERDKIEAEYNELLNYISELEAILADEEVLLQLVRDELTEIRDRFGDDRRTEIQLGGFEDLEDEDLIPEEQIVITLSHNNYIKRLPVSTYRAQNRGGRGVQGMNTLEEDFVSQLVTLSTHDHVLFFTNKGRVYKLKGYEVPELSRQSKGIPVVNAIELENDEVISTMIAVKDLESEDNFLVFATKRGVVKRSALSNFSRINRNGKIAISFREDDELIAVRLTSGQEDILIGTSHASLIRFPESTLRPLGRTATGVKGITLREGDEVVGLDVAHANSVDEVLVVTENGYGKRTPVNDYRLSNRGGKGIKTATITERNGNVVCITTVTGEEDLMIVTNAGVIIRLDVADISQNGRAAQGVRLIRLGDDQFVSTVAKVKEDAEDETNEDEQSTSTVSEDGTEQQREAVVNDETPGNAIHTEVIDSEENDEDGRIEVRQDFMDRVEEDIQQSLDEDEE

Staphylococcus aureus [23] = experiment: Antibacterial activity against Staphylococcus aureus ATCC 29213 assessed as minimum inhibitory concentration required for >=90% inhibition of bacterial growth by CLSI protocol based broth microdilution assay; format: functional
Staphylococcus aureus [24] = experiment: Antibacterial activity against Staphylococcus aureus ATCC 29213 assessed as bacterial growth inhibition at 50 uM incubated for 24 hrs by CLSI protocol based broth microdilution assay relative to control; format: functional
Escherichia coli [25] = experiment: Antibacterial activity against efflux pump d effect ive Escherichia coli JW5503 harbouring tolC mutant assessed as minimum inhibitory concentration required for >=90% inhibition of bacterial growth by CLSI protocol based broth microdilution assay; format: functional
Escherichia coli [26] = experiment: Antibacterial activity against Escherichia coli ATCC 25922 assessed as bacterial growth inhibition at 50 uM incubated for 24 hrs by CLSI protocol based broth microdilution assay relative to control; format: functional
Pseudomonas aeruginosa = experiment: Antibacterial activity against Pseudomonas aeruginosa ATCC 27853 assessed as bacterial growth inhibition at 50 uM incubated for 24 hrs by CLSI protocol based broth microdilution assay relative to control; format: functional
DNA gyrase [27] = biological target: T1, DNA gyrase; experiment: Inhibition of Escherichia coli DNA gyrase using biotinylated oligonucleotide as substrate incubated for 30 mins in presence of ATP by fluorescence-based microplate reader assay; format: protein-complex assay
[28] = biological target: Topoisomerase IV (Staphylococcus aureus) (UniProt P0C1U9+P0C1S7); experiment: Inhibition of Staphylococcus aureus DNA topoisomerase 4 assessed as residual activity at 1 uM using biotinylated oligonucleotide as substrate incubated for 30 mins in presence of ATP by fluorescence-based microplate reader assay relative to control; format: protein-complex assay
Escherichia coli [29] = experiment: Antibacterial activity against outer membrane impaired Escherichia coli JD17464 harboring lpxC mutant assessed as bacterial growth inhibition at 50 uM incubated for 24 hrs by CLSI protocol based broth microdilution assay relative to control; format: functional

**Q.** For `O=C(O)c1cn(C2CC2)c2cc(N3CCNCC3)c(F)cc2c1=O` [CIPROFLOXACIN], which MIC (Escherichia coli [1]) is on record?
**A.** > 32 µM

**Q.** And the MIC (Acinetobacter baumannii [2])?
**A.** 3.62 µM (≈ 1.2 µg/mL)

**Q.** And the MIC (Klebsiella pneumoniae [3])?
**A.** 0.05 µM (≈ 0.0166 µg/mL)

**Q.** And the MIC (Escherichia coli [4])?
**A.** 0.01 µM

**Q.** What about the MIC (Escherichia coli [5]) of the same compound?
**A.** 8 µM

**Q.** And the MIC (Klebsiella aerogenes [6])?
**A.** 0.113 µM (≈ 0.0374 µg/mL)

**Q.** What about the MIC (Escherichia coli [7]) of the same compound?
**A.** 0.01 µM

**Q.** And the MIC (Escherichia coli [8])?
**A.** 0.19 µM

**Q.** Which results are given for `CCNC(=O)Nc1nc2cc(-c3cnc(N4CCC(C)(C(=O)O)CC4)nc3)cc(-c3ccccn3)c2s1`?
**A.** MIC (Enterococcus faecalis [9]): 0.03 mg/L (≈ 0.058 µM); IC50 [10]: 0.046 µM; IC50 (DNA gyrase [11]): 0.0041 µM

**Q.** Which IC50 [12] does the source give for `CNc1cc(F)cc2c1[nH]c1nc(Oc3cnc(C)nc3)nc(N3C[C@@H]4[C@H](N)C[C@]4(C)C3)c12` here?
**A.** 0.0003 µM

**Q.** What about the MIC (Escherichia coli [13]) of the same compound?
**A.** 0.06 mg/L (≈ 0.134 µM)

**Q.** And the MIC (Staphylococcus aureus [14])?
**A.** 0.002 mg/L (≈ 0.00446 µM)

**Q.** Which Activity [15] does the source give for `Cc1[nH]c(C(=O)Nc2ccc(-n3nn[nH]c3=O)cc2)c(Cl)c1Cl` here?
**A.** 94%

**Q.** What about the inhibition at 50 µM (Enterococcus faecium) of the same compound?
**A.** 53%

**Q.** What about the inhibition at 50 µM (Escherichia coli [16]) of the same compound?
**A.** 100%

**Q.** And the MIC (Enterococcus faecalis [17])?
**A.** 12.5 µM (≈ 4.41 µg/mL)

**Q.** And the inhibition at 50 µM (Acinetobacter baumannii [18])?
**A.** 1%

**Q.** What about the inhibition at 50 µM (Enterococcus faecalis [19]) of the same compound?
**A.** 99%

**Q.** And the inhibition at 50 µM (Klebsiella pneumoniae [20])?
**A.** -2%

**Q.** What about the inhibition at 50 µM (Klebsiella aerogenes [21]) of the same compound?
**A.** -2%

**Q.** And the Activity [22]?
**A.** 47%

**Q.** What about the MIC (Staphylococcus aureus [23]) of the same compound?
**A.** 50 µM (≈ 17.7 µg/mL)

**Q.** What about the inhibition at 50 µM (Staphylococcus aureus [24]) of the same compound?
**A.** 99%

**Q.** What about the MIC (Escherichia coli [25]) of the same compound?
**A.** 3.13 µM (≈ 1.11 µg/mL)

**Q.** What about the inhibition at 50 µM (Escherichia coli [26]) of the same compound?
**A.** 3%

**Q.** What about the inhibition at 50 µM (Pseudomonas aeruginosa) of the same compound?
**A.** -3%

**Q.** And the IC50 (DNA gyrase [27])?
**A.** 0.077 µM

**Q.** What about the Activity [28] of the same compound?
**A.** 85%

**Q.** And the inhibition at 50 µM (Escherichia coli [29])?
**A.** -1%
